Assay results as given in US7135475B2, “Amide substituted xanthine derivatives” (Hoffmann-La Roche Inc., priority 2002, dated 2006).
pIC50: −log10 of the molar value.

Test system: not given
Assay: not given
Conditions: not given

Row | melting point | Compound
1 | 208 to 212 °C | CCCCn1c(=O)n(Cc2ccccc2)c(=O)c2[nH]c(Cc3ccc(N4C(=O)CCC4=O)cc3)nc21 [Example 65, 1-Benzyl-3-butyl-8-[4-(2,5-dioxo-pyrrolidin-1-yl)-benzyl]-3,7-dihydro-purine-2,6-dione]

Biological target: T1, recombinant human cytosolic PEPCK (Homo sapiens, UniProt P35558)
T1 sequence (P35558 1-622): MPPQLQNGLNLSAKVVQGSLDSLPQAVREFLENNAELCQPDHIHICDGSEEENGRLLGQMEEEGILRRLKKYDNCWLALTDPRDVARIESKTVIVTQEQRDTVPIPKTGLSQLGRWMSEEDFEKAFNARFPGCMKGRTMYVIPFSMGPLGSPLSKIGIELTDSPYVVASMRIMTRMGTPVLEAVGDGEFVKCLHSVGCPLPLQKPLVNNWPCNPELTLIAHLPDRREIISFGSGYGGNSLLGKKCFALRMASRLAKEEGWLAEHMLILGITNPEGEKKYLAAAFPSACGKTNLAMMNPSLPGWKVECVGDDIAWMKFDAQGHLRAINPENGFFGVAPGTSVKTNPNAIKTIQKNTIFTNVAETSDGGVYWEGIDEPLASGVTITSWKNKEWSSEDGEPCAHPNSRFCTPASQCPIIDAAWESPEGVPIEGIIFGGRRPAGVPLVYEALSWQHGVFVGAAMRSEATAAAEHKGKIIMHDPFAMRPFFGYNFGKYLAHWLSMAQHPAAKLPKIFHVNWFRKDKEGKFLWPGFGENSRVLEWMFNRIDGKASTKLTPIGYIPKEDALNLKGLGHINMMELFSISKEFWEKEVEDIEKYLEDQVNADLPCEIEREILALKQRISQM
Assay: PEPCK enzyme assay (coupled pyruvate kinase/lactate dehydrogenase, absorbance at 340)
Type: biochemical
Conditions: recombinant human cytosolic GST-PEPCK; GTP and OAA at 3 fold and 10 fold Km; final DMSO 10%; room temperature, twenty minutes; read-out: In vitro IC50
Procedure: E. coli cells expressing GST-PEPCK were suspended in 5 volumes of lysis buffer (50 mM Tris-hydroxymethyl aminomethyl (TRIS), 150 mM sodium chloride (NaCl), 10 mM ethylene-diametetraacetic acid (EDTA), 5 mM dithiothreitol(DTT), 1% Nonidet P-40, pH 7.4) in the presence of protease inhibitors, incubated with lysozyme at 200 micrograms/ml for 30 min. at room temperature, and sonicated 4×30 seconds at 4 degrees C. After centrifugation at 12,000×g for 20 min. to remove insoluble material, the supernatant was loaded onto glutathione Sepharose (Pharmacia), washed with lysis buffer followed by washing with lysis buffer in the absence of NP-40. GST-PEPCK was eluted with the same buffer containing 20 mM glutathione. The eluted protein was concentrated and dialyzed against 25 mM Hepes(N-[2-hydroxyethyl]piperazine-N′[2-ethanesulfonic acid), 150 mM NaCl, 2.5 mM EDTA, 5 mM DTT, 30% glycerol, pH 7.4, and stored at −20 ° C.
The inhibitory effect of the compounds of the present invention on PEPCK enzymatic activity was determined using recombinant human cytosolic PEPCK, expressed and purified from E.coli as a GST-fusion. Guanosine triphosphate (GTP) and manganese dependent PEPCK enzyme activity catalyzed the decarboxylation of oxalacetate leading to the formation of guanosine diphosphate (GDP) and phosphoenol pyruvate (PEP). This reaction is coupled to pyruvate kinase and lactate dehydrogenase catalyzed reactions and the overall reaction rate determined by measuring the change in absorbance at 340 nm (Chang, H. C. and Lane M. D., J. Biol.Chem. 241:2413–2420, 1966). The following modifications were made to the protocol: 2.5 μg of recombinant, human cytosolic glutathione-S-transferase (GST)-PEPCK was added to a reaction mixture at room temperature which contained 0.3 mM GTP, 0.3 mM oxaloacetate (OAA), 3 mM magnesium chloride (MgCl2), 0.075 mM manganese chloride (MnCl2), 30 mM potassium phosphates (KPO4), pH 7.6, 1 mM dithiothreitol (DTT), 0.2 mM adenosine diphosphate (ADP), 1 mM nicotinamide adenine dinucleotide, reduced form (NADH), 0.9 Units/ml each of pyruvate kinase and lactate dehydrogenase and 1 mg/ml bovine serum albumin (BSA). Test compounds were added such that final concentration of DMSO was 10%. Reactions were run for twenty minutes.
Km values for GTP and OAA were determined according to Michelis-Menton conditions as described in Cornish-Bowden (Fundamentals of Enzyme Kinetics, 1995) in essentially the coupled assay conditions described above. […] Test compounds were added to reactions over a range of concentrations and IC50's were calculated from plots of inhibitor concentration versus enzyme rate. This method of determination of IC50 values is equally applicable to calculations based on PEPCK cellular assay.
The in vitro biological activity of several representative preferred compounds of the present invention in the foregoing PEPCK enzymatic assay is presented in Table 1.

Row | pIC50 | Compound
2 | 6.60 | Cc1nn(C)c(C)c1C(=O)C(=O)N(C)c1ccc(Cc2nc3c([nH]2)c(=O)n(Cc2ccccc2F)c(=O)n3CC2CC2)cc1 [Example 103, N-{4-[3-Cyclopropylmethyl-1-(2-fluorobenzyl)-2,6-dioxo-2,3,6,7-tetrahydro-1H-purin-8-ylmethyl]-phenyl}-N-methyl-2-oxo-2-(1,3,5-trimethyl-1H-pyrazol-4-yl)-acetamide]
3 | 6.55 | Cc1nn(C)c(Cl)c1C(=O)N(C)c1ccc(Cc2nc3c([nH]2)c(=O)n(Cc2ccccc2F)c(=O)n3CC2CC2)cc1 [Example 104, 3-Chloro-1,5-dimethyl-1H-pyrazole-4-carboxylic acid {4-[3-cyclopropylmethyl-1-(2-fluorobenzyl)-2,6-dioxo-2,3,6,7-tetrahydro-1H-purin-8-ylmethyl]-phenyl}-methyl-amide]
4 | 6.42 | CN(C(=O)c1cncnc1)c1ccc(Cc2nc3c([nH]2)c(=O)n(Cc2ccccc2F)c(=O)n3CC2CC2)cc1 [Example 96, Pyrimidine-5-carboxylic acid {4-[3-cyclopropylmethyl-1-(2-fluorobenzyl)-2,6-dioxo-2,3,6,7-tetrahydro-1H-purin-8-ylmethyl]-phenyl}-methyl-amide]
5 | 6.47 | Cc1ccc(C(=O)N(C)c2ccc(Cc3nc4c([nH]3)c(=O)n(Cc3ccccc3F)c(=O)n4CC3CCC3)cc2)cn1 [Example 88, N-{4-[3-Cyclobutylmethyl-1-(2-fluorobenzyl)-2,6-dioxo-2,3,6,7-tetrahydro-1H-purin-8-ylmethyl]-phenyl}-6,N-dimethyl-nicotinamide]
6 | 6.18 | Cc1noc(C)c1C(=O)N(C)c1ccc(Cc2nc3c([nH]2)c(=O)n(Cc2ccccc2F)c(=O)n3CC2CC2)cc1 [Example 110, 3,5-Dimethyl-isoxazole-4-carboxylic acid {4-[3-cyclopropylmethyl-1-(2-fluorobenzyl)-2,6-dioxo-2,3,6,7-tetrahydro-1H-purin-8-ylmethyl]-phenyl}-methyl-amide]
7 | 6.25 | CCCCN(C(=O)c1ccc(C)nc1)c1ccc(Cc2nc3c([nH]2)c(=O)n(Cc2ccccc2F)c(=O)n3CCCC)cc1 [Example 118, N-Butyl-N-{4-[3-butyl-1-(2-fluorobenzyl)-2,6-dioxo-2,3,6,7-tetrahydro-1H-purin-8-ylmethyl]-phenyl}-6-methyl-nicotinamide]
8 | 6.36 | CC(=O)Nc1ccc(C(=O)N(C)c2ccc(Cc3nc4c([nH]3)c(=O)n(Cc3ccccc3F)c(=O)n4CC3CC3)cc2)cn1 [Example 98, 6-Acetylamino-N-{4-[3-cyclopropylmethyl-1-(2-fluorobenzyl)-2,6-dioxo-2,3,6,7-tetrahydro-1H-purin-8-ylmethyl]-phenyl}-N-methyl-nicotinamide]
